Experimental data from paper PMC5444710, “Enhancement of radiosensitivity by the novel anticancer quinolone derivative vosaroxin in preclinical glioblastoma models” (Oncotarget, 2017).
Where a SMILES comes first, the peptide text is derived from it. The star is where a group is joined. Cbz = O=C(OCc1ccccc1)*; CH2F = FC*

Experiments:
[1] = system: U87MG, U251, and T98G cells; test: Autophagy: acidic vesicular organelle (AVO) staining; type: cell-based, human; details: RT 4 Gy, 24 hours
Source text: As a marker of autophagy we evaluated the presence of AVOs after staining of cell cultures with LysoTracker® Red DND-99 kit (Life Technologies Italia, Monza, Italy) according to the manufacturer’s instructions. The intensity of the red fluorescence is proportional to the degree of acidity. The percentage of autophagic cells was quantified with the Tali® Image-Based Cytometer (Life Technologies) measuring fluorescence emission at 590 nm with fluorescence excitation at 577 nm. The results were expressed as the percentage of cell AVOs stained in controls and in treated cultures.

[2] = system: luciferase-transfected U251 cells; test: Orthotopic intra-brain model (DFS, OS)
U87MG xenografts = test: Subcutaneous xenograft model: tumor weight and time to progression; type: in vivo, female CD1-nu/nu mice; details: U87MG xenografts; day 35; VSR 10 mg/kg q 5 d for 5 wk IV; TMZ 16 mg/kg 5 consecutive days; RT single 4 Gy
Procedure: (§1) Female CD1-nu/nu mice, at 6 weeks of age, were purchased from Charles River (Milan, Italy) under the guidelines established by our institution (University of L’Aquila, Medical School and Science and Technology School Board Regulations, complying with Italian government regulation n.116, January 27, 1992, for the use of laboratory animals). All mice received subcutaneous flank injections (2 each) of 1 × 10^6 U251, U87MG, and T98G cells representing models for MGMT-negative and MGMT-positive cells. Tumor growth was assessed biweekly by measuring tumor diameters with a Vernier caliper (length × width). Tumor weight was calculated according to the formula tumor weight (mg) = tumor volume (mm^3) = d2 × D/2, where d and D are the shortest and longest diameters, respectively. The effects of the treatments were assessed as previously described. At about 10 days after the tumor injection, 30 mice with tumor volumes of 0.5–0.8 cm^3 were randomly divided into 6 groups (5 mice per group with 2 tumors each): (1) control (vehicle); (2) vosaroxin (10 mg/kg every 5 days for 5 weeks intravenous [IV] injection into tail vein; (3) radiotherapy (RT; 4 Gy delivered in a single fraction); (4) vosaroxin in combination with RT; (5) temozolomide (16 mg/kg 5 consecutive days) and (6) temozolomide in combination with RT. Anesthetized tumor-bearing mice received focal irradiation. Irradiation was delivered using an x-ray linear accelerator at a dose rate of 200 cGy/min at room temperature. All mice were shielded with a specially designed lead apparatus to allow irradiation to the right hind limb. At the end of the study (35 days after the start of treatments), animals were sacrificed by carbon dioxide inhalation and tumors were then removed surgically. Half of the tumor was directly frozen in liquid nitrogen for protein analysis and the other half was fixed in paraformaldehyde overnight for immunohistochemical analyses.
(§2) The following parameters were used to quantify the antitumor effects of different treatments as previously described: tumor volume, measured throughout the experiment; tumor weight, measured at the end of the experiment; tumor progression, defined as an increase of greater than 50% of tumor volume with respect to baseline; and time to progression (TTP), defined as the time until tumor progression was observed from baseline. Tumor size was measured with calipers and the TTP of a single tumor was calculated. TTP data were used to generate Kaplan-Meier curves for progression. This method of analysis was described previously, and may reduce both inter-subject variability resulting from differences in engraftment efficacy as well as intra-subject variability in response.
(§3) In vivo drug combination studies were evaluated using CalcuSyn. For CI calculations of dual administration, the values of % cell kill (%CK) for a fixed tumor volume were determined by the log CK (LCK). LCK was calculated as LCK = (T − C) / (3.32 × Td), where Td represented the mean control group doubling time required to reach a fixed tumor volume, expressed in days. T and C were the mean times in days required to reach the same fixed tumor volume in the treated group and the control group, respectively. CK was calculated as %CK = [1 − (1 − 10LCK)] × 100. Tumor growth delay (TGD) was calculated as %TGD = [(T − C) / C] × 100, where T and C were the same values as those reported by Bruzzese et al..

U251 xenografts = test: as above; type: in vivo, female CD1-nu/nu mice; details: U251 xenografts; day 35; VSR 10 mg/kg q 5 d for 5 wk IV; TMZ 16 mg/kg 5 consecutive days; RT single 4 Gy
Procedure: as §1, §2, §3

T98G xenografts = test: as above; type: in vivo, female CD1-nu/nu mice; details: T98G xenografts; day 35; VSR 10 mg/kg q 5 d for 5 wk IV; TMZ 16 mg/kg 5 consecutive days; RT single 4 Gy
Procedure: as §1, §2, §3

COC(=O)C[C@H](NC(=O)[C@H](C)NC(=O)[C@@H](NC(=O)OCc1ccccc1)C(C)C)C(=O)CF [z-Val-Ala-Asp(Ome)-fluoromethyl ketone] (Cbz-Val-Ala-Asp(OMe)-CH2F) was tested, and the “RT-induced AVO staining” value ([1]; 10 μM) was “further increased”.

Cn1nnc2c(C(N)=O)ncn2c1=O [temozolomide] was tested, and the “Disease-free Survival HR (95% CI)” value ([2]; TMZ vs VSR) was 2.0 (0.9–5.5), the “Overall Survival HR (95% CI)” value ([2]; TMZ vs VSR) was 3.0 (1.0–8.8) and the “mean time of recurrence (DFS) ± SE” value ([2]; orthotopic U251-luciferase, treated for 35 days starting 5 days after cell injection) was 68.3 ± 5.4 days. For the same molecule, the “final tumor weight reduction compared with vehicle controls” value (“final tumor weight reduction” below) (U87MG xenografts) was 53%, the “final tumor weight reduction” value (U251 xenografts) was 54% and the “final tumor weight reduction” value (T98G xenografts) was 25%.

For Cn1cnc(N)c2ncnc1-2 [3-methyladenine], the “RT-induced AVO staining” value ([1]; 5 μM) was “reduced”.
